The text below walks through data of ChEMBL document CHEMBL1157406, “Cytotoxic metabolites from the fungal endophyte Alternaria sp. and their subsequent detection in its host plant Polygonum senegalense” (J Nat Prod, 2008).

Structures are written as SMILES.

The assay deals with L5178Y. Nature of the assay: Cytotoxicity against mouse L5178Y cells at 10 ug/ml by MTT assay. Type of assay: functional. On the technique in general: Tetrazolium dyes change colour on reduction, which living cells bring about.
Take `COc1cc(O)c2c(=O)oc3cc(OS(=O)(=O)O)cc(C)c3c2c1`: the Activity came to 89%.
With `Cc1cc(=O)c2c(C)cc(O)cc2o1` the figure was 95%.
With `CC[C@H](C)[C@@H]1NC(=O)C(C(C)=O)=C1O` [TENUAZONIC ACID] the figure was 57.9%.
